Measured values reported in PubChem BioAssay AID651786 (The Scripps Research Institute Molecular Screening Center, 2012).
The source made the active and inactive calls.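 Rule for the calls: active = IC50 at or below 10 µM; inactive = IC50 above 10 µM.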

Biological target: Nuclear receptor coactivator 1 (Homo sapiens) (UniProt Q15788)
Assay: inhibition of GAL4-SRC1 reporter transcription – cell-based, HEK293, GAL4-SRC1 luciferase, powder samples, selectivity assay for SRC3 inhibitor project, late-stage follow-up (AID 651786)
Details: luminescence

Sequence of Nuclear receptor coactivator 1 (Homo sapiens) (Q15788 whole entry, looked up, the tested form may be a part): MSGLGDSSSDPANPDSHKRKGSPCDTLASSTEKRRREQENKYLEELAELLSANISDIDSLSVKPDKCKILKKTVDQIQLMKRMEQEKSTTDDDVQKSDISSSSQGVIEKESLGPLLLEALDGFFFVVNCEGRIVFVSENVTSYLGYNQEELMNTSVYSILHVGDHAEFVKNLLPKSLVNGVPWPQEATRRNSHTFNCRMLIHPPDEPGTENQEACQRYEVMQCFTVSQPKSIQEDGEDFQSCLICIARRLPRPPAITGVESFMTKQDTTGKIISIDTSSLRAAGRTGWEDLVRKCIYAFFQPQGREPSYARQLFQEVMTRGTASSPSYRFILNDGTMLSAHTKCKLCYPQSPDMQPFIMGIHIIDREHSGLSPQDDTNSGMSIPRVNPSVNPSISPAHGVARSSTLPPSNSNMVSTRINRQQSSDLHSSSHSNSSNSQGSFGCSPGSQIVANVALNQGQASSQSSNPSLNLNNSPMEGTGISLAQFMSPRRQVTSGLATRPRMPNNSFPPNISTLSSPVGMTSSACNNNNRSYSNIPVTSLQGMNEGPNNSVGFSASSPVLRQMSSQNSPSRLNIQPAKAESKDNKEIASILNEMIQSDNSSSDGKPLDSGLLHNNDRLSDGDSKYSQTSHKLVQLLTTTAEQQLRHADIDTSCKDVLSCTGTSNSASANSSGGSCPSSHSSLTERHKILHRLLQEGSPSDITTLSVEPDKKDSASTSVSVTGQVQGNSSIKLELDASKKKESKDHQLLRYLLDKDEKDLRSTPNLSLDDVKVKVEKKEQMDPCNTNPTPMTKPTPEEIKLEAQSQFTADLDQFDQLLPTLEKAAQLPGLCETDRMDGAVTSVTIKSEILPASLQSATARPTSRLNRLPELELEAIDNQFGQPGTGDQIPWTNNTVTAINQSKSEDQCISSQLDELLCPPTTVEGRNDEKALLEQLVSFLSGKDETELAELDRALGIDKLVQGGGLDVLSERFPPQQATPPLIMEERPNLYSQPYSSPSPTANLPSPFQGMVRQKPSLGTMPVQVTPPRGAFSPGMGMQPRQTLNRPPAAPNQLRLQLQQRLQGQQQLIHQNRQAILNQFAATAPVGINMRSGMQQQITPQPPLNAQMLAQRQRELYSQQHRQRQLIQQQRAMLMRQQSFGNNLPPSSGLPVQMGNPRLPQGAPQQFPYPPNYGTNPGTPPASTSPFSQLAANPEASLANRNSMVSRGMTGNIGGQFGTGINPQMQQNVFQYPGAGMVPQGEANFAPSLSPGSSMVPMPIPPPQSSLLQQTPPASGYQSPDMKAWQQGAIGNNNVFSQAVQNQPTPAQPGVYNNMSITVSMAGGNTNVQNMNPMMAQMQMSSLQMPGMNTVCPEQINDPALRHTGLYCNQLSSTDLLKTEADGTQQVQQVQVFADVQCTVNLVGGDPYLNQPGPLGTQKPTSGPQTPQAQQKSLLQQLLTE

| IC50 | SMILES |
| --- | --- |
| 6.16 µM | CCCNC(=O)c1nnsc1S(=O)(=O)c1ccc(Cl)cc1 |
| > 35.9 µM (inactive) | CN1C(=O)C2(C(C#N)=C(N)N(c3cc(Cl)cc(Cl)c3)C3=C2C(=O)CC(C)(C)C3)c2ccccc21 (stereo not drawn) |
| > 35.9 µM (inactive) | CN1C(=O)C2(C(C#N)=C(N)N(c3cc(Cl)cc(Cl)c3)C3=C2C(=O)CCC3)c2ccccc21 (stereo not drawn) |
| inactive | Cc1ccc(OCC(=O)c2cc(C)n(-c3ccccc3)c2C)c([N+](=O)[O-])n1 |
| > 35.9 µM (inactive) | CC(C)(C)c1ccc(-c2noc(CCC(=O)Nc3cccnc3)n2)cc1 |
| 3.01 µM | OCCN1CCN(C(=S)c2ccc(-c3ccccc3)cc2)CC1 |
| 6.87 µM | O=C(Nc1ccccc1Oc1ccccc1)c1cc([N+](=O)[O-])ccc1Cl |
| > 35.9 µM (inactive) | O=C(COC(=O)c1ccc[nH]c1=O)Nc1ccc(N2CCCCC2)cc1 |
